Experimental data as given in patent publication US6818656B2, “Method and composition for treatment of irritable bowel disease” (University of Florida, priority 2001, dated 2004).
Where two headings read alike, the source gives them in different places.

Assays:
[1] = tested on: castor oil-induced diarrhea; conditions: cited from earlier work; for activity in castor oil-induced diarrhea model (in words): rodent
[2] = cited from earlier work
diarrhea = conditions: animal models and clinic; cited from earlier work
[3] = compared with DEHSPM; cited from earlier work
[4] = tested on: stress-induced fecal output; assay: Psychological stress-induced (water avoidance) IBS model, SC administration; type: in vivo; conditions: for mortality of rats after drug administration: ~24 h post-dosing
Excerpt: (§1) For drug preparation and administration, the compounds were put into solution with sterile normal saline and sonicated briefly, if necessary. The drugs were made up at concentrations such that the rats received the drugs PO or SC at the rate of 1 cc per kilogram. Mice received the CHX(3,4,3)-trans IP at 1 cc per 100 grams. The solutions were made fresh the day of the study. Control animals received an equivalent amount of saline PO or SC.
Animal care and experimental procedures were approved by the Institutional Animal Care and Use Committee. Male Sprague-Dawley rats (250-350 g, Harlan Sprague-Dawley, Indianapolis, Ind.) were housed in polycarbonate cages in a temperature- and humidity-controlled room with a 12-hour light/dark cycle. The experiments were performed at the same time of the day to decrease diurnal variability. A typical experiment involved 20 rats: 5 saline-treated controls and 5 pretreated with polyamine analogues at each of three doses as either a SC injection or a PO gavage. The rats in the SC studies and in one set of experiments involving PO administration were allowed ad libitum access to a standard rodent diet and tap water until the morning of the experiment. Stress was initiated 30 minutes post drug as described below. In another set of experiments involving PO administration, the animals were fasted overnight but were allowed free access to water. […] In a final experiment, non-stressed control rats were injected with saline SC and housed in individual polycarbonate cages. The fecal output (number of pellets) of the stressed and unstressed animals was recorded at 30-min intervals for a 6-h period, during which they received no food or water.
(§2) To initiate the stress, water was added to each cage to a depth of at least 4.5 cm, i.e., within 0.5 cm of the top of the Pyrex dish. To avoid contact with water, the rats stand on the glass dish for the 6 h of the study. Stool output was expressed as the total number of fecal pellets excreted over the 6-h collection period. Percent reduction was calculated by dividing the mean value from the treated animals (T) by the mean value from the control animals (C), subtracting the resulting quotient from 1.0, and multiplying by 100 [i.e., (1.0−T/C)×100].
(§3) A one-tailed t-test assuming unequal variance was performed on the stool output data of the treated vs control (0 mg/kg) animals for each compound. A value of P<0.05 was considered significant.
The psychological stress-induced IBS model involves subjecting the rats to an aversive stimulus (water) and observing the increase in fecal output over a period of time. […] Control rats received an equivalent amount of saline SC.

[5] = tested on: stress-induced fecal output; assay: Psychological stress-induced (water avoidance) IBS model, PO administration by gavage; type: in vivo, rat; conditions: for oral activity against stress-induced fecal output (in words): PO gavage, non-fasted rats, 11.6-115.6 μmol/kg
Excerpt: as §1
Animal care and experimental procedures were approved by the Institutional Animal Care and Use Committee. Male Sprague-Dawley rats (250-350 g, Harlan Sprague-Dawley, Indianapolis, Ind.) were housed in polycarbonate cages in a temperature- and humidity-controlled room with a 12-hour light/dark cycle. The experiments were performed at the same time of the day to decrease diurnal variability. A typical experiment involved 20 rats: 5 saline-treated controls and 5 pretreated with polyamine analogues at each of three doses as either a SC injection or a PO gavage. The rats in the SC studies and in one set of experiments involving PO administration were allowed ad libitum access to a standard rodent diet and tap water until the morning of the experiment. Stress was initiated 30 minutes post drug as described below. In another set of experiments involving PO administration, the animals were fasted overnight but were allowed free access to water. The animals were then stressed from ½ h to 2 h post-drug (data not shown). In a final experiment, non-stressed control rats were injected with saline SC and housed in individual polycarbonate cages. The fecal output (number of pellets) of the stressed and unstressed animals was recorded at 30-min intervals for a 6-h period, during which they received no food or water.
as §2, with “Once the drug had been administered, the animals were housed individually in polycarbonate cages containing a clear 70×50 mm Pyrex crystallization dish (Fisher, Pittsburgh, Pa.) inverted in the center and held in place with vacuum grease. To initiate” for “To initiate”
as §3
Because an orally active compound would be desirable for the treatment of IBS, selected analogues utilizing oral administration in the same model were assessed. In the initial studies animals were utilized that had been fasted overnight. Rodents were then given the drug of interest PO by gavage and stressed ½ h, 1 h, or 2 h post-drug. Unfortunately, because of the low baseline stool output in fasted control rats, the reductions in fecal output observed upon drug administration cannot be reported with any confidence (data not shown). Thereafter, only non-fasted animals were employed and were given the agents by gavage at doses of 11.6, 23.2, 57.8, or 115.6:mol/kg 30 minutes before initiating the stress. […] At doses of 11.6 and 23.2:mol/kg, CHX(3,4,3)-trans reduced stooling by about 80% (P=0.001 and <0.001, respectively). DEHSPM was effective at a dose of […]:mol/kg (40% diminution of fecal output; P<0.01), and DE(5,4,5) was active at doses of 23.2 and 57.8:mol/kg (55 and 73% reductions in fecal output, respectively; P<0.001 for both doses).

[6] = Acute toxicity assessment, single intraperitoneal injection; type: in vivo; conditions: toxic doses, mice
Protocol: For the acute toxicity assessment the CHX(3,4,3)-trans was administered to female CD-1 mice (Charles River, Wilmington, Mass.) as a single intraperitoneal (IP) injection. The animals were carefully observed post-dosing and were scored 2 h after administration of the drug.
as §1

[7] = tested on: stress-induced fecal output; assay: Psychological stress-induced (water avoidance) IBS model, SC administration; type: in vivo; conditions: 57.8 μmol/kg SC; experiment stopped after 2 h, results after 2 h
[8] = mice; N-de-ethylated metabolite of DEHSPM; cited from earlier work
[9] = dog; relative to 2-3 weeks in mice; cited from earlier work
[10] = tested on: constipation-predominant IBS; conditions: eight patients, 16 mg three times a week, eight weeks; cited from earlier work
[11] = dogs, 4.3 mg/kg/day for 14 days or 2.15 mg/kg/d for 28 days
[12] = 2.3 μmol/kg SC, stress 30 min post drug, 6-h collection
[13] = 11.6 μmol/kg SC, 6-h collection
[14] = 57.8 μmol/kg SC, 6-h collection
[15] = 57.8 μmol/kg SC, listed as DBSPM
[16] = Rattus norvegicus, sc, 2 h, read-out: % Reduction

CCNCC[C@@H](O)CNCCCCNC[C@H](O)CCNCC [(HO)2DEHSPM, (3R, 12R)-N^1,N^14-diethyl-3,12-dihydroxyhomospermine]
activity in castor oil-induced diarrhea model (in words) [1]: considerably decreased stool output | onset of exocrine pancreatic insufficiency post-final dose [2, 11]: approximately 40 days | pancreatic toxicity [2, 11]: exocrine pancreatic insufficiency developed | induction of cardiac bigeminies ([2]; treated dogs): minimal | antidiarrheal activity (in words) (diarrhea): as effective an antidiarrheal as DEHSPM | residence time in most mouse tissues [3]: shorter than that of DEHSPM

CCNCCCNCCCNCCCNCC [Compound 1, N^1,N^11-diethylnorspermine]
activity in castor oil-induced diarrhea model (in words) ([1]; listed as DENSPM): ineffective in reducing stooling | Stool Output [4, 12]: 17.4 ± 5.1 number of fecal pellets | Stool Output [4, 13]: 15.2 ± 4.5 number of fecal pellets | Stool Output [4, 14]: 13.4 ± 5.9 number of fecal pellets | activity at diminishing stress-induced fecal output (in words) ([4]; SC administration to stressed rats, listed as DENSPM): completely ineffective | oral activity against stress-induced fecal output (in words) [5]: only CHX(3,4,3)-trans, DEHSPM, and DE(5,4,5) showed any activity at all

CCNCCCNCCCCNCCCNCC [Compound 3, N^1,N^12 diethylspermine]
Stool Output ([4]; 23.2 μmol/kg SC, 6-h collection): 12.5 ± 2.9 number of fecal pellets | Stool Output ([4]; 35.4 μmol/kg SC, 6-h collection): 9.0 ± 6.3 number of fecal pellets | Stool Output ([4]; 61 μmol/kg SC, 6-h collection): 2.8 ± 2.7 number of fecal pellets | inhibition in vivo at 23.2 µmol/kg ([4]; Rattus norvegicus, 23.2 μmol/kg SC, vs stressed controls, 6 h, read-out: % Reduction): 35% | inhibition in vivo at 35.4 µmol/kg ([4]; Rattus norvegicus, 35.4 μmol/kg SC, vs stressed controls, 6 h, read-out: % Reduction): 53% | inhibition in vivo at 61 µmol/kg ([4]; Rattus norvegicus, 61 μmol/kg SC, vs stressed controls, 6 h, read-out: % Reduction): 90% | oral activity against stress-induced fecal output (in words) [5]: only CHX(3,4,3)-trans, DEHSPM, and DE(5,4,5) showed any activity at all | signs of acute toxicity in mice [6]: generalized depression with respiratory failure

CCCCNCCCNCCCCNCCCNCCCC [Compound 5]
neurotoxicity in rats at subtherapeutic doses ([1]; doses equivalent to a 5 mg/kg dose of DEHSPM): Signs of neurotoxicity | Stool Output [4, 12]: 14.0 ± 4.8 number of fecal pellets | toxic effects observed in stressed rats ([4]; 11.6 μmol/kg SC): ^eDue to severe CNS toxicity, the experiment was stopped after 2 h; the results after 2 h are reported. | Stool Output ([4]; 11.6 μmol/kg SC, experiment stopped after 2 h, results after 2 h): 0 ± 0 number of fecal pellets | % Reduction ([4]; 11.6 μmol/kg SC, experiment stopped after 2 h, results after 2 h, listed as DBSPM): completely eliminated fecal output | toxic effects observed in stressed rats ([4]; 11.6 μmol/kg SC, listed as DBSPM): severe neurotoxicity | toxic effects observed in stressed rats ([4]; 57.8 μmol/kg SC): ^eDue to severe CNS toxicity, the experiment was stopped after 2 h; the results after 2 h are reported. | mortality of rats after drug administration ([4]; 57.8 μmol/kg SC): ^fAll rats in this group died ˜24 h after drug administration. | mortality of rats after drug administration [4, 15]: died within ˜24 h post-dosing | toxic effects observed in stressed rats [4, 15]: severe neurotoxicity | inhibition in vivo at 11.6 µmol/kg [4, 16]: 100% | inhibition in vivo at 57.8 µmol/kg [4, 16]: 100% | inhibition in vivo at 2.3 µmol/kg ([4]; Rattus norvegicus, 2.3 μmol/kg SC, vs stressed controls, 6 h, read-out: % Reduction): 39% | Stool Output [7]: 0 ± 0 number of fecal pellets

CCNCCCCNCCCCNCCCCNCC [Compound 13, N^1,N^14-diethylhomospermine]
Stool Output [4, 13]: 2.1 ± 2.1 number of fecal pellets | Stool Output [4, 14]: 0 ± 0 number of fecal pellets | inhibition in vivo at 11.6 µmol/kg ([4]; Rattus norvegicus, 11.6 μmol/kg SC, vs stressed controls, 6 h, read-out: % Reduction): 89% | inhibition in vivo at 57.8 µmol/kg ([4]; Rattus norvegicus, 57.8 μmol/kg SC, vs stressed controls, 6 h, read-out: % Reduction): 100% | Stool Output ([5]; 115.6 μmol/kg PO, 6-hr collection): 10.6 ± 1.8 number of fecal pellets | % Reduction ([5]; 115.6 μmol/kg PO, vs stressed controls, 6 hr): 40% | diminution of fecal output ([5]; 15.6 :mol/kg PO): 40% | time at which arrhythmia was apparent in 6-lead EKG ([2]; SC, dogs, 2 mg/kg daily): as early as three days | cardiac effect ([2]; SC, three dogs, 2 mg/kg daily for 11-17 days): ventricular bigeminies | antidiarrheal activity (in words) (diarrhea): very potent antidiarrheal | signs of acute toxicity in mice [6]: generalized depression with respiratory failure

NCCCCNCCCCNCCCCN [HSPM, homospermine]
half-life [8]: 2-3 weeks | half-life [9]: even longer

C=C1CCC2(O)C3Cc4ccc(OC5OC(C(=O)O)C(O)C(O)C5O)c5c4C2(CCN3CC2CC2)C1O5 (stereo not shown) [Nalmefene glucuronide]
abdominal pain or bloating [10]: did not reduce abdominal pain or bloating | transit time and stool frequency [10]: decreased transit time and increased stool frequency
